In patent US12709734B2, “Human polarised three-dimensional cellular aggregates” (CAMBRIDGE ENTERPRISE LIMITED, priority 2018, dated 2026):
Entries after “also recorded” stand apart in the source; their conditions may differ.

Columns and labels:
[1] = tested on: RUES2-GLR human gastruloids; experiment: Human gastruloid formation: elongation and germ layer reporter patterning after pre-treatment; assay type: cell-based; details: for elongation / BRA expression of gastruloids: 24 h pre-treatment of RUES2-GLR cells in Nutristem with the named factor (Wnt3a 100 ng/ml or BMP4 50 ng/ml instead of Chiron); for SOX2 expression domain / SOX17 expression: Chiron + 10 μM SB431542 24 h pre-treatment vs Chiron only, RUES2-GLR reporter
Description: (§1) Before aggregation, hESCs cultured in 6-well plates were typically pretreated with 3-3.5 μM CHIR99021 (Chiron) in Nutristem for 24 h, unless otherwise stated.
For signal modulation experiments, RUES2-GLR cells were pre-treated for 1 day in Nutristem supplemented with 100 ng/ml recombinant human Wnt3a (5036-WN-010) or 50 ng/ml BMP4 (314-BP), and aggregated in E6 and ROCK inhibitor with additional supplementation as shown. Subsequent media changes were performed daily with E6 alone. To test the effect of signal modulation on gastruloid formation, RUES2-GLR cells were pre-treated in Nutristem supplemented with 3.25 μM Chiron and one of 1 μM LDN193189 (04-0074), 1 μM XAV-939 (04-0046), or 10 μM SB431542 (1614) before aggregation in E6 with 0.5 μM Chiron and ROCK inhibitor, unless otherwise stated. Subsequent media changes were performed daily with E6 alone.
An alternative, ‘dorsalised’ protocol used 3 μM Chiron, supplemented with 10 μM SB431542 Nodal inhibitor (SB431542) also in Nutristem for 24 h.
After pre-treatment, hESCs at 60-85% confluency were washed twice with PBS−/−. For detachment, 2 ml 0.5 mM EDTA in PBS−/− was applied per well and cells were incubated at 37° C., 5% CO2 for 6.5 min. The plate was then carefully tapped against a solid object to promote detachment and the suspension was pipetted up and down repeatedly (5-10−) with a P1000 to break remaining clumps into single cells.
The suspension was then transferred into a 15 ml centrifuge tube with 8 ml PBS−/− and centrifuged for 3-5 min at 1000 rpm. The supernatant was removed, cells were washed with PBS−/− and spun down again 3-5 min at 1000 rpm. Subsequently, depending on the pellet size, cells were resuspended in 500 μl to 2 ml Essential 6 (E6) medium (Gibco, life technologies) and counted using an automated cell counter (MoxiZ, Orflo). Optimal cell density should be around 1×10^6/ml. The specific number of cells optimized per cell line (400/well for RUES2-TR, 500/well for mSHEF7 and H9TV lines) were then added to E6 supplemented with 5 μM Rock Inhibitor and 3 μM Chiron. Using a multichannel pipette, cells in this suspension were plated in 40 μl per well of an ultra-low adhesion, round bottom 96-well plate (Costar, Corning Inc.). At 24 h after aggregation, 150 μl E6 were added into each well using a multichannel pipette. E6 (see Chen et al., 2011) was continuously exchanged every subsequent day by removing 150 μl per well and adding the same amount.
Human gastruloids made using the RUES2-GLR reporter line were specifically analysed for dynamic reporter expression. An in-house MATLAB script was developed to assess the dynamic fluorescent marker expression along the AP axis of human gastruloids. Widefield images of gastruloids were taken at 24 h, 48 h and 72 h and aligned along their anteroposterior axis with reference to fluorescent reporter expression. For each sample, a binary image was generated in the brightfield channel and used as a mask for all fluorescent channels and the major (length) axis was identified. Consequently, for every pixel along the length axis, the sum of intensity values of the respective channel along the width of the aggregate was divided by the width of the gastruloid at that specific point, yielding the normalized fluorescence intensity along the length of the sample. This process was then repeated for every acquired fluorescent channel. Gastruloids used for this analysis were a full set from one experimental batch, and images were only excluded from the analysis when anteroposterior alignment or binarization were unsuccessful.
In order to quantify the degree of elongation of human gastruloids, brightfield channel widefield images were imported into Fiji (Schindelin et al., 2012). The length of the longest axis was measured using the line tool, followed by the length of the perpendicular axis at the mid-point of the longest axis line. […]

[2] = tested on: hESCs (RUES2-GLR, MasterShef7); experiment: Effect of Chiron pre-treatment on adherent hESCs (RT-qPCR, immunostaining); assay type: cell-based, human
Description: We pre-treated hESCs for 1 day in pluripotency medium supplemented with 3-3.5 μM of the Wnt signalling agonist, CHIR99021 (hereafter referred to as Chiron) before aggregation; effectively shifting the Chiron pulse to before the aggregation rather than 48 h after aggregation as is the case in mouse gastruloids (Baillie-Johnson, P., et al., 2015).
as §1
Adherent cell staining was done using 1:200 Mouse anti-CDH2 (BD Biosciences, BD10920), 1:200 Rat anti-CDH1 (Takara, M108) and 1:200 Rabbit anti-BRACHYURY (AbCam, ab209665) primary antibodies. Quantification was performed using Fiji software on the whole image (histograms) or using a line ROI through the colony (line graph).
Gene expression was analysed from adherent cells using Trizol (Ambion LifeTechnologies) according to manufacturer's instructions. Total RNA was quantified using a NanoDrop 2000C (ThermoScientific) and 5 μg was added to a reverse transcription reaction with Superscript III (Invitrogen) according to manufacturer's instructions. Resultant cDNA was quantified by qPCR with SYBRGreen (Merck) using a liquid handling robot (Qiagility, Qiagen) and analysed on a RotorGeneQ thermocycler (Qiagen). Primer sequences can be found in Supplementary Table 1. Concentration of cDNA was estimated using an in-house MAK2 analysis method.

[3] = tested on: HYS01030 human induced pluripotent stem cell (iPSC) line; experiment: Gastruloid formation from human induced pluripotent stem cells; assay type: cell-based; details: 3.5 uM Chiron 1 day before aggregation, aggregated in Chiron and ROCK inhibitor
Excerpt: FIG. 8: Human gastruloids made from induced pluripotent stem cells. […] 6 representative examples are show. […] There is also some sign of a rosette-like or lumenised structure that expresses SOX2 in the posterior tip (arrowhead). 3 representative examples are shown.
We used a wild type hESC line (mSHEF7; REF) as well as two transgenic lines, the H9TV BRACHYURY-Venus reporter (Mendjan et al., 2014) and RUES2-GLR, the triple reporter for germ layer markers with BRACHYURY-H2B-mCerulean, SOX17-H2B-tdTomato and SOX2-mCitrine (Simunovic et al., 2018). We also used a human induced pluripotent stem cell line, known as HYS01030 (unpublished).

[4] = tested on: RUES2-GLR human gastruloids; experiment: Tomo-sequencing of Chiron vs Chiron+SB431542 pre-treated human gastruloids; assay type: cell-based
Description: An alternative, ‘dorsalised’ protocol used 3 μM Chiron, supplemented with 10 μM SB431542 Nodal inhibitor (SB431542) also in Nutristem for 24 h. Tomo-sequencing was performed and analysed in an updated version of published methods (Junker et al., 2014; and Kruse et al., 2016). In short, gastruloids were sectioned along their AP axis, and the mRNA-content of each section was extracted using SORT-seq (Muraro et al., 2016). Paired end (75 bp) sequencing was performed on the resulting RNA-seq libraries using the Illumina Next-Seq sequencing platform. Read 1 contains the cell or section barcode and the unique molecular identifier (UMI). Read 2 contains the biological information. Reads 2 with a valid cell/section barcode were selected and mapped using STAR-2.5.3a with default parameters to the human GRCh38 genome (ENSEMBL version 93), and only reads mapping to gene bodies (exons or introns) were used for downstream analysis. Reads mapping simultaneously to an exon and to an intron were assigned to the exon. Mappabilities for the different samples range between 44% and 47%. For each cell or section, the number of transcripts was obtained as previously described […]. We refer to transcripts as unique molecules based on UMI correction. […] In each gastruloid, data was then normalized to the median number of unique transcripts per slice, and the z-score of each gene was extracted along sections. The reproducibility of AP expression pattern between different gastruloid replicates was scored for each gene using a random background model to calculate the Pearson correlation coefficient p-value. The p-value threshold to select reproducible genes was set at 0.001. […] Differential gene expression was performed by normalizing the transcripts in each section to 100,000 for all gastruloids; then pooling all sections of each gastruloid together; and finally assessing significant differentially expressed genes based on total expression using the Binomial test. An alternative, ‘dorsalised’ protocol used 3.25 μM Chiron, supplemented with 10 μM SB431542 Nodal inhibitor (SB431542) also in Nutristem for 24 h. They were then aggregated in E6 with 3 μM Chiron and ROCK inhibitor.

[5] = 120 h Chi+SB43 vs 72 h Chiron pre-treated gastruloids
[6] = Chi+SB43 vs Chi pre-treated gastruloids
[7] = Chiron + SB431542 pre-treated vs Chiron pre-treated gastruloids
[8] = of genes reproducible in either or both conditions, Chi+SB43 vs Chi

## Cc1c[nH]c(-c2cnc(NCCNc3ccc(C#N)cn3)nc2-c2ccc(Cl)cc2Cl)n1 [Chiron, CHIR99021]
[1]
  elongation / BRA expression of gastruloids: strictly dependent on the Chiron pre-treatment
[1]; 72 h after aggregation, Chiron pre-treated RUES2-GLR, average of experiments
  aggregates displaying an elongated morphology: ~ 66%
[2]; 24 h Chiron pre-treatment vs Nutristem alone, RT-qPCR, RUES2-GLR
  expression of NANOG: increased expression
[2]; 24 h Chiron pre-treatment vs Nutristem, immunostaining of adherent colonies
  expression and membrane localisation of CDH1 (E-cadherin) / CDH2 (N-cadherin): switch in the expression and membrane localisation of CDH1 (E-cadherin) towards CDH2 (N-cadherin; also recorded: increase in the expression of membrane localised CDH2 (N-cadherin)
[2]; 1 day Chiron pre-treatment vs pluripotency medium alone, RT-qPCR
  expression of mesendodermal marker genes (BRA, MIXL1, LEFTY1, LEFTY2, AXIN2, EOMES, CDX1): increased expression
[2]; 1 day pre-treatment with 3-3.5 μM Chiron vs pluripotency medium (Nutristem) alone, RT-qPCR
  expression of pluripotency markers (POU5F1, SOX2): levels equivalent to cells maintained in pluripotency medium alone; also recorded: levels comparable to cells maintained in pluripotency medium alone
[2]; 1 day pre-treatment with 3-3.5 μM Chiron vs pluripotency medium alone, RT-qPCR
  levels of SOX2: slightly reduced
[3]
  morphology of iPSC-derived aggregates: polarised in their morphology at 72 hours

## NC(=O)c1ccc(-c2nc(-c3ccc4c(c3)OCO4)c(-c3ccccn3)[nH]2)cc1 [SB431542]
[4]; [5]
  genes reproducibly localised in both conditions: 301 genes
  genes with loss of reproducible localisation: 509 genes
  genes with novel spatial localisation acquired: 944 genes
[4]; [6]
  expression of HOX genes (HOXC9, HOXA9, HOXC6) and SOX2: up-regulation
  expression of Nodal signalling components and targets: down-regulation
  expression of cardiac development genes (TBX5, GATA6, LBX1, NKX2.5): loss of many genes
  expression of definitive endoderm genes (SHH, LHX1, CER1, FOXA3, SORCS2, FOXA2): decrease in expression
[4]; [7]
  domain-size and level of expression of SOX2 and SOX3: increase in the domain-size and level of expression
  expression of BRA, CYP26A1 and WNT3A in the posterior domain: comparable to the Chiron pre-treated human gastruloids
  expression of FOXA2: very little expression
  expression of Node-like markers NODAL, NOTO, PITX2, DAND5: no detectable expression
  expression of asymmetry markers LEFTY1, LEFTY2 and anterior cardiac mesoderm markers GATA4, GATA6, HAND2: little or no expression
[4]; Chiron + SB431542 pre-treated vs Chiron pre-treated gastruloids (central region)
  localisation of somitogenesis-like genes (MEOX, TCF15): become anteriorly localised
[4]; [8]
  genes differentially expressed between the two treatments: 564 genes
  proportion of genes differentially expressed between the two treatments: 33%
[1]; Chiron + 10 μM SB431542 24 h pre-treatment
  BRA expression pattern: diffuse expression of BRA that approximated a gradient from anterior to posterior
[1]
  SOX2 expression domain: distinctly larger domains of SOX2 expression
  SOX17 expression: fewer, if any, SOX17 expressing cells
[1]; listed as SB43
  SOX2 expression domain: larger, well-defined SOX2 domain at their posterior end
  SOX17 expression: absence of detectable SOX17 expression
[1]; Chiron + 10 μM SB431542 24 h pre-treatment, compared to original method
  elongation and polarisation of gene expression: able to elongate and polarise their gene expression

B1: Wnt3a: recombinant human Wnt3a (protein, UniProt P56704 19-352, looked up)
Protein Wnt-3a: SYPIWWSLAVGPQYSSLGSQPILCASIPGLVPKQLRFCRNYVEIMPSVAEGIKIGIQECQHQFRGRRWNCTTVHDSLAIFGPVLDKATRESAFVHAIASAGVAFAVTRSCAEGTAAICGCSSRHQGSPGKGWKWGGCSEDIEFGGMVSREFADARENRPDARSAMNRHNNEAGRQAIASHMHLKCKCHGLSGSCEVKTCWWSQPDFRAIGDFLKDKYDSASEMVVEKHRESRGWVETLRPRYTYFKVPTERDLVYYEASPNFCEPNPETGSFGTRDRTCNVSSHGIDGCDLLCCGRGHNARAERRREKCRCVFHWCCYVSCQECTRVYDVHTCK
[1]
  elongation / BRA expression of gastruloids: insufficient to promote elongation or BRA expression

B2: BMP4: BMP4 protein used for pre-treatment, 50 ng/ml (protein, UniProt P12644 293-408, looked up)
Bone morphogenetic protein 4: SPKHHSQRARKKNKNCRRHSLYVDFSDVGWNDWIVAPPGYQAFYCHGDCPFPLADHLNSTNHAIVQTLVNSVNSSIPKACCVPTELSAISMLYLDEYDKVVLKNYQEMVVEGCGCR
[1]
  elongation / BRA expression of gastruloids: insufficient to promote elongation or BRA expression
